# Test results reported in ChEMBL document CHEMBL1772971, “Novel 18F-labeled benzofuran derivatives with improved properties for positron emission tomography (PET) imaging of β-amyloid plaques in Alzheimer's brains” (J Med Chem, 2011).
# Calls of active or inactive are those of the source. The rule behind the calls is not given here.
# Tests used:
# [1] = Displacement of [125I]IMPY from amyloid beta (1 to 42) after 3 hrs by gamma counting
# Brain = experiment: Ratio of drug level in brain after 2 mins to brain after 60 mins in ddY mouse […] at 185 to 370 kBq, iv; format: ADME, organism-based; settings: in vivo
# [2] = target: Amyloid-beta precursor protein (Homo sapiens) (UniProt P05067); experiment: Binding affinity to beta amyloid plaques in normal human brain at 444 kBq/50 uL after 1 hr by autoradiography; settings: tested as the 18F-labelled form
# Amyloid-beta precursor protein (Homo sapiens), sequence (P05067 whole entry): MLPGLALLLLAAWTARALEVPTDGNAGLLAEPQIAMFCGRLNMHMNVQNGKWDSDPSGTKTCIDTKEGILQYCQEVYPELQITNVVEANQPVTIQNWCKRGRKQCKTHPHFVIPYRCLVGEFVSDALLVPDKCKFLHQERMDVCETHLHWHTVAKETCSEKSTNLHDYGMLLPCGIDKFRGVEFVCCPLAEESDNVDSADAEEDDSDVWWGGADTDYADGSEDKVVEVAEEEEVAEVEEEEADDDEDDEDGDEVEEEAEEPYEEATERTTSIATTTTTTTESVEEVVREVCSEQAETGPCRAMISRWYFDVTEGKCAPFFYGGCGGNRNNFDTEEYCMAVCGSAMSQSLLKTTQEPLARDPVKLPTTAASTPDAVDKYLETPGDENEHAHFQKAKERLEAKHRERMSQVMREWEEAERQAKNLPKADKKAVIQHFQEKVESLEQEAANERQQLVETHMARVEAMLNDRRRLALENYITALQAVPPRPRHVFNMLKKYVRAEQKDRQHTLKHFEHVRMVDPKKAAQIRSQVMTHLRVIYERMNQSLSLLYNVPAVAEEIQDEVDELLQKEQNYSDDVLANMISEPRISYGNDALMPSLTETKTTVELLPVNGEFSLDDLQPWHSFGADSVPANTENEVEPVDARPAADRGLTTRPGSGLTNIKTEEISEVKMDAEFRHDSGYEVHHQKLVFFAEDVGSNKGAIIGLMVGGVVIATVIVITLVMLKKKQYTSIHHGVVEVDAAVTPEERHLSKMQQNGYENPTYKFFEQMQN
Structure (SMILES),Ki [1] [nM],Ratio (Brain),Activity [2]
CN(C)c1ccc(-c2cc3cc(OCCOCCOCCF)ccc3o2)cc1,2,–,–
CN(C)c1ccc(-c2cc3cc(OCCOCCOCC[18F])ccc3o2)cn1,–,2.11,–
CNc1ccc(-c2cc3cc(OCCOCCOCCF)ccc3o2)cc1,3.85,–,inactive
